Measurements published in US20060173162A1, “Bactericidak anti-apoptotic, pro-inflammatory and anti-inflammatory peptides of heparin-binding protein (hbp)” (priority 2002, published 2006).

Assays:
Assay type in all cases: cell-based
monocytes in WB [1] = assay: IL-6 secretion in citrated human whole blood (screening for inflammatory and anti-inflammatory potential); settings: for LPS induced IL-6 production, variant compared to the unsubstituted peptide: in the presence of LPS, FIG. 7; for PGN induced IL-6 production, variant compared to the unsubstituted peptide: FIG. 8; for effect on LPS induced IL-6 secretion: 100 ng/ml LPS, FIG. 2; for effect on PCW induced IL-6 secretion: PCW 50 μg/ml from Staphylococcus aureus, FIG. 4; for IL-6 secretion in the absence of bacterial components: no bacterial component, peptide 0.09, 0.18, 0.36 and 0.71 mg/ml blood, FIG. 1
From the text: Human whole blood (WB) contains besides red cells, platelets and plasma the white blood cells including the neutrophils and monocytes. Neutrophils and monocytes have receptors for bacterial products such as LPS, PGN and LTA. The bacterial products react directly or via specific binding proteins to receptors on the monocytes thereby stimulating them to secrete and release inflammatory cytokines comprising, but not limited to IL-1, IL-6, and TNF-α.
In the example to be described LPS from the E. coli is used to stimulate the monocytes in WB (anti-coagulated by use of citrate) and the activity is measured by subsequently quantifying IL-6 in plasma separated from WB. The activity of HBP, HBP derived peptides and analogues hereof are evaluated by their ability to: • 1. increase IL-6 secretion in absence of bacterial products • 2. increase IL-6 secretion in presence of bacterial products • 3. decrease IL-6 secretion in presence of bacterial products • 4. inhibit amplification of cytokine secretion induced by intact HBP
All operations must be carried out in LAF cabinet by observance of stringent aseptic techniques. All test tubes, pipette tips etc. must be pyrogen-free. Buffers must be prepared by use of sterile, […], preferably water for injection. Use 0.1% pyrogen-free BSA/PBS for all dilutions.
Add 20 μl of HBP derived peptide (in concentrations from 25 to 2500 μM) to 100 μl freshly drawn (less than 4 hours old) citrate whole blood from a healthy human volunteer. Add 20 μl bacterial component (LPS, LTA or PGN) in concentrations from 5 to 5000 ng/ml, preferably 50 to 500 ng/ml. Mix well and incubate for 16-18 hours in an atmosphere of 5% carbon dioxide and at least 95% relative humidity. At the end of the incubation add at least 5 volumes (700 μl) 0.1% BSA/PBS. Mix well. Centrifuge 10 min. at 10.000 g. Aspirate 500 μl supernatant. Determine the level of IL-6 by a specific human immune assay for human IL-6 with sensitivity of at least 3 pg/ml, e.g. Human IL-6 Kit from RnD Systems (cat. no. D 6050).
Negative controls: 100 μl WB plus 40 μl 0.1% BSA/PBS. Positive control: 100 μl WB plus 20 μl LPS (same concentration as used for testing the peptide) and 20 μl 0.1% BSA/PBS.
The human (h20-44) and porcine (p20-44) peptides were synthesized and tested in the screening assay described in Example 1. The following parameters were examined: (a) abililty to induce inflammation on their own (i.e. in the absence of any bacterial component), (b) ability to amplify or inhibit inflammation induced by a bacterial component, such as LPS from the Gram negative bacteria E. coli and PGN or Purified Cell Wall (PCW) from a Gram positive bacteria. As measure for immune stimulation secretion of the release of IL-6 in citrated whole blood was used. The peptides were tested in the concentrations 0.09, 0.18, 0.36 and 0.71 mg/ml blood. […]

monocytes in WB [2] = assay: as above; settings: 250 μg/ml PGN from S. aureus
Human Neutrophils (PMNs) = assay: Apoptosis of isolated human neutrophils, TUNEL assay with flow cytometry; settings: 25 μg HBP per ml sample; 24 h culture; control about 70%
Protocol: The screening for anti-apoptotic peptides is carried out essentially as described by Shrotri M S. et al., 2000.
Peripheral blood from normal volunteers was collected and PMNs were separated by density gradient using Ficoll-Hypaque (Sigma Chemical Co.). PMNs obtained were divided into 1-ml samples with […] and were treated and analyzed as per the protocols described below.
Cell pellets were obtained by centrifugation at 300 g and fixed with 1% paraformaldehyde for 15 min at 4° C. Cells were washed twice and permeabilized with 70% ice-cold ethanol and stored at […]. Cells samples were washed twice and stained by the terminal dUTP nick-end labeling (TUNEL) assay using the APO-BRDU kit (Phoenix Flow Systems, San Diego, Calif.), following the manufacturer's instructions. Briefly, in this assay, the enzyme terminal deoxynucleotidyl transferase (TdT) catalyzes the addition of nucleotides to DNA strand breaks in the apoptotic cells, which are subsequently labeled with fluorescein isothiocyanate (FITC)-conjugated antinucleotide antibodies. The fluorescent cells are the apoptotic cells that are then identified or assessed using the flow cytometer (EPICS Elite, Beckman-Coulter, Hialeah, Fla.). These apoptotic cells were also visually confirmed by confocal microscopy (Meridian Instruments Inc., Okemos, Mich.).
Time zero group. […]

[3] = PGN 50 μg/ml from Staphylococcus aureus, peptide 0.09-0.71 mg/ml blood, FIG. 3

Molecule: KQGRHFCGGALIHARFVMTAASCFR (Peptide fragment amino acid residues 20-44 of hHBP with mutations N20K,Q44R) [hHBP 20-44 with both N- and C-terminal residues substituted with the corresponding porcine residues]
- LPS induced IL-6 production, variant compared to the unsubstituted peptide (monocytes in WB [1]): nearly non-stimulating
- PGN induced IL-6 production, variant compared to the unsubstituted peptide (monocytes in WB [1]; in the presence of PGN): inhibitory

Molecule: KQGRPFCAGALVHPQFVLTAASCFR (Peptide fragment amino acid residues 20-44 of pHBP with mutation R34Q) [R34Q pHBP 20-44, substitution of arginine to glutamine in position 34 of pHBP 20-44]
- effect on PGN induced IL-6 secretion (monocytes in WB [1]; in the presence of PGN, FIG. 6): completely abolished the inhibitory effect

Molecule: KQGRPFCAGALVHPRFVLTAASCFQ (Peptide fragment amino acid residues 20-44 of pHBP with mutation R44Q) [pHBP 20-44 with C-terminal amino acid residue replaced with the human C-terminal residue]
- LPS induced IL-6 production, variant compared to the unsubstituted peptide (monocytes in WB [1]): the same pattern was observed
- PGN induced IL-6 production, variant compared to the unsubstituted peptide (monocytes in WB [1]; in the presence of PGN): the same pattern was observed

Molecule: KQGRPFCAGALVHPRFVLTAASCFR (Peptide fragment amino acid residues 20-44 of pHBP) [porcine HBP 20-44]
- effect on LPS induced IL-6 secretion (monocytes in WB [1]; peptide 0.09-0.71 mg/ml blood): significantly and dose-dependently inhibited
- effect on PCW induced IL-6 secretion (monocytes in WB [1]; peptide 0.09-0.71 mg/ml blood): significantly and dose-dependently inhibited
- effect on PGN induced IL-6 secretion (monocytes in WB [1]; [3]): significantly and dose-dependently inhibited
- IL-6 secretion in the absence of bacterial components (monocytes in WB [1]): no significant or dose-dependent effect

Molecule: NQGRHFCGGALIHARFVMTAASCFQ [human HBP 20-44]
- sum of the IL-6 secretion induced by LPS and peptide individually (monocytes in WB [1]; 100 ng/ml LPS alone plus 0.71 mg/ml peptide alone): 14,178 pg/ml
- IL-6 secretion, peptide and LPS together (monocytes in WB [1]; 100 ng/ml LPS plus 0.71 mg/ml peptide): 12,130 pg/ml
- effect on LPS induced IL-6 secretion (monocytes in WB [1]; 0.71 mg/ml peptide): increased IL-6 secretion significantly
- effect on LPS induced IL-6 secretion (monocytes in WB [1]; up to 0.36 mg/ml peptide): did not significantly increase
- effect on PCW induced IL-6 secretion (monocytes in WB [1]; peptide 0.09-0.71 mg/ml blood): increased IL-6 secretion in dose-dependent way
- effect on PGN induced IL-6 secretion (monocytes in WB [1]; [3]): increased IL-6 secretion in dose-dependent way
- IL-6 secretion in the absence of bacterial components (monocytes in WB [1]): significant and dose-dependent increase

Molecule: NQGRPFCAGALVHPRFVLTAASCFR (Peptide fragment amino acid residues 20-44 of pHBP with mutation K20N) [pHBP 20-44 whose N-terminal amino acid residue was substituted with the human N-terminal residue]
- LPS induced IL-6 production, variant compared to the unsubstituted peptide (monocytes in WB [1]): less inhibitory
- PGN induced IL-6 production, variant compared to the unsubstituted peptide (monocytes in WB [1]; in the presence of PGN): less inhibitory

Molecule: hHBP 20-44 acetylated at the N-terminal amino group and amidated at the C-terminal carboxyl group: hHBP 20-44 acetylated at the N-terminal amino group and amidated at the C-terminal carboxyl group (Ac-NQGRHFCGGALIHARFVMTAASCFQ-NH2; cysteine pairing not given here; UniProt P20160 46-70, looked up, fragment)
- fold stimulation of the PGN mediated IL-6 production (monocytes in WB [2]; FIG. 5 compared to FIG. 2): more than ten fold stimulation
- effect on PGN induced IL-6 secretion (monocytes in WB [2]; normalized to PGN alone, FIG. 5): stimulated the IL-6 secretion in a dose dependant way

Molecule: pHBP 20-44 acetylated and amidated at the N- and C-terminal amino acids: pHBP 20-44 acetylated and amidated at the N- and C-terminal amino acids, respectively (Ac-KQGRPFCAGALVHPRFVLTAASCFR-NH2; cysteine pairing not given here; UniProt P80015 46-70, looked up, fragment)
- LPS induced IL-6 production, variant compared to the unsubstituted peptide (monocytes in WB [1]): more inhibitory
- PGN induced IL-6 production, variant compared to the unsubstituted peptide (monocytes in WB [1]; in the presence of PGN): more inhibitory

B1: HBP: heparin-binding protein (HBP), isolated from azurophile granules of human PMNs; also termed CAP37, azurocidin (protein, listed as Homo sapiens)
chain: IVGGRKARPRQFPFLASIQNQGRHFCGGALIHARFVMTAASCFQSQNPGVSTVVLGAYDLRRRERQSRQTFSISSMSENGYDPQQNLNDLMLLQLDREANLTSSVTILPLPLQNATVEAGTRCQVAGWGSQRSGGRLSRFPRFVNVTVTPEDQCRPNNVCTGVLTRRGGICNGDGGTPLVCEGLAHGVASFSLGPCGRGPDFFTRVALFRDWIDGVLNNPGPGPA
- amplification of cytokine secretion induced by bacterial products (monocytes in WB [1]): at least three-fold amplification
- cytokine secretion by HBP in itself (monocytes in WB [1]; no bacterial product): no measurable effect
- apoptosis (Human Neutrophils (PMNs)): ~45%
